This assay deals with C. auris. Briefly: minimum inhibitory concentration, C. auris (Table 3). The format is cell-based, Candida auris. As to conditions: Candidozyma auris. The source says:
Table 2 and Table 3 below show the minimum inhibitory concentration values for the synthesized compounds as tested on bacterial strains.

Setting [1] is: 50% inhibition, first of two values in cell, read-out: minimum inhibitory concentration, C. auris 50% inhib.
[2] abbreviates: 50% inhibition, second of two values in cell, read-out: minimum inhibitory concentration, C. auris 50% inhib.
The mark [3] stands for this setting: 90% inhibition, first of two values in cell, read-out: minimum inhibitory concentration, C. auris 90% inhib.
Where [4] appears, read: 90% inhibition, second of two values in cell, read-out: minimum inhibitory concentration, C. auris 90% inhib.

Structures are written as SMILES. ≈ marks a conversion by molar mass, not a printed value. Where two headings read alike, the source gives them in different places. Bounds are passed on as bounds.

On to `COc1cccc(/C=N/N2CCN(C)CC2)c1O` [Compound 20], for which the MIC under setting [1] was 128 µg/mL (≈ 513 µM), the MIC under setting [2] amounted to 128 µg/mL (≈ 513 µM), the MIC under setting [3] came to 256 µg/mL (≈ 1030 µM) and the MIC under setting [4] came to 256 µg/mL (≈ 1030 µM).

As for `CN1CCN(/N=C/c2ccc(Cl)c([N+](=O)[O-])c2)CC1` [Compound 3], the MIC by setting is: under setting [1], 256 µg/mL (≈ 905 µM); under setting [2], 128 µg/mL (≈ 453 µM); under setting [3], 256 µg/mL (≈ 905 µM); under setting [4], 256 µg/mL (≈ 905 µM).

Take `C[C@@H]1[C@H](O)[C@@H](C)/C=C/C=C/C=C/C=C/C=C/C=C/C=C/[C@H](O[C@@H]2O[C@H](C)[C@@H](O)[C@H](N)[C@@H]2O)C[C@@H]2O[C@](O)(C[C@@H](O)C[C@@H](O)[C@H](O)CC[C@@H](O)C[C@@H](O)CC(=O)O[C@H]1C)C[C@H](O)[C@H]2C(=O)O` [Amphotericin B, reference compound]: the MIC runs as follows: under setting [1], 1 µg/mL (≈ 1.08 µM); under setting [2], 1 µg/mL (≈ 1.08 µM); under setting [3], 1 µg/mL (≈ 1.08 µM); under setting [4], 1 µg/mL (≈ 1.08 µM).

Consider `CN1CCN(/N=C/c2ccc([N+](=O)[O-])cc2)CC1` [Compound 4], for which the MIC under setting [1] was 256 µg/mL (≈ 1030 µM), the MIC under setting [2] came to 256 µg/mL (≈ 1030 µM), the MIC under setting [3] is over 256 µg/mL and the MIC under setting [4] was over 256 µg/mL.

Consider `COc1ccc(/C=N/N2CCN(C)CC2)c2ccccc12` [Compound 5, (E)-1-(4-methoxynaphthalen-1-yl)-N-(4-methylpiperazin-1-yl)methanimine], for which the MIC is, setting by setting: under setting [1], 128 µg/mL (≈ 452 µM); under setting [2], 128 µg/mL (≈ 452 µM); under setting [3], 256 µg/mL (≈ 903 µM); under setting [4], 256 µg/mL (≈ 903 µM).

For the molecule `CN1CCN(/N=C/c2ccc(-c3ccccc3)cc2)CC1` [Compound 17], the MIC was determined as 64 µg/mL (≈ 229 µM) under setting [1], 64 µg/mL (≈ 229 µM) under setting [2], 128 µg/mL (≈ 458 µM) under setting [3] and 128 µg/mL (≈ 458 µM) under setting [4].

These data come from patent US20260337172A1, “AMINOPIPERAZINES WITH BROAD SPECTRUM ANTIMICROBIAL ACTIVITY” (The United States Government as represented by the …, priority 2022, published 2026).
